Experimental data reported in US9540379B2 (priority 2011, dated 2017).
Read-outs that look alike come from different tables or passages of the source.

Tests used:
[1] = biological target: T1, PDE10A (Homo sapiens (Human), UniProt Q9Y233); experiment: biochemical
Method: (§1) Inhibition of Recombinant PDE10A (Expressed in Baculovirus/SF21 Cells)
(§2) PDE activity was determined in a one step procedure in microtiter plates. The reaction mixture of 100 μl contained 50 mM Tris-HCl/5 mM MgCl2 buffer (pH=7.4, Sigma, Deisenhofen, Germany; Merck, Darmstadt, Germany) 0.1 μM [3H]-cAMP (PerkinElmer, Shelton, USA) and the enzyme. Non-specific enzyme activity was determined without the enzyme.
(§3) The reaction was initiated by addition of the substrate solution and was carried out at 37° C. for 30 minutes. Enzymatic activity then was stopped by addition of 25 μl Ysi-SPA-beads (PerkinElmer, Shelton, USA). One h later the mixture was measured in a liquid scintillation counter for microtiter plates (Microbeta Trilux). The Biomek 2000 (Beckman) was used routinely for pipetting of the incubation mixture. […] For determination of IC50 values the Hill-plot, 2-parameter-model, was used.

[2] = biological target: T1, PDE10A; conditions: read-out: Inhibition of PDE10A, IC50
Method: as §1, §2, §3

T1 sequence (Q9Y233 other isoform, or with tags, fused parts or gaps): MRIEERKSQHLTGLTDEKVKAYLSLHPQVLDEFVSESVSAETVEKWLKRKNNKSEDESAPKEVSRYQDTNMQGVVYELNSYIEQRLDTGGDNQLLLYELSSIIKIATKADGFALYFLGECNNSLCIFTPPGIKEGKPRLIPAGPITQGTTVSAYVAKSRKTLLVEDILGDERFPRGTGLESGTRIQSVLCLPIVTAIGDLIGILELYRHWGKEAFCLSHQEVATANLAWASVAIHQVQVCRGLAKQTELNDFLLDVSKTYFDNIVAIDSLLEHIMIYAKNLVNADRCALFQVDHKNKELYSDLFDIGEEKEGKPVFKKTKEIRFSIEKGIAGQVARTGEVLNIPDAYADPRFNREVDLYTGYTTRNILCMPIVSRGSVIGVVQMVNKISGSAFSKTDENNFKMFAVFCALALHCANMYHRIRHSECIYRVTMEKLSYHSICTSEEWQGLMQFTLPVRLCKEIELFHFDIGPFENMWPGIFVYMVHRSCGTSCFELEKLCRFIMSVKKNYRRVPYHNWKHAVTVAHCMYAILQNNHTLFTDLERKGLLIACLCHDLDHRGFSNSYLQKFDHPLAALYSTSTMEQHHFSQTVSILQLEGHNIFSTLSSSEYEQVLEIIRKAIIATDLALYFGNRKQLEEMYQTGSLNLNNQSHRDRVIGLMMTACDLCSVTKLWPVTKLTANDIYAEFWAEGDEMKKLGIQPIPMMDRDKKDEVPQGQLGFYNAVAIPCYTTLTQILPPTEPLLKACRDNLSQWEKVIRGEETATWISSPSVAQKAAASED

With `Cc1nc2cc(Cl)ccc2n2c(-c3cc(OCCCC(F)(F)F)ccc3Cl)nnc12` [Example 27, 7-Chloro-1-[2-chloro-5-(4,4,4-trifluoro-butoxy)-phenyl]-4-methyl-[1,2,4]triazolo[4,3-a]quinoxaline] the IC50 [1] was over 1000 nM.

In the case of `COCCOc1ccc(F)c(-c2nnc3cnc4cc(Cl)ccc4n23)c1` [Example 29, 7-Chloro-1-[2-fluoro-5-(2-methoxy-ethoxy)-phenyl]-[1,2,4]triazolo[4,3-a]quinoxaline], the IC50 [1] is reported as over 1000 nM.

`CCCCOc1ccc(Cl)c(-c2nnc3c(C)nc4ccc(F)cc4n23)c1` [Example 59, 1-(5-Butoxy-2-chloro-phenyl)-8-fluoro-4-methyl-[1,2,4]triazolo[4,3-a]quinoxaline] showed an IC50 [2] of over 1000 nM.

`CCCCCCOc1ccc(F)c(-c2nnc3c(C)nc4ccc(F)cc4n23)c1` [Example 60, 8-Fluoro-1-(2-fluoro-5-hexyloxy-phenyl)-4-methyl-[1,2,4]triazolo[4,3-a]quinoxaline] showed an IC50 [2] of over 1000 nM.

`COc1ccccc1-c1nnc2c(C)nc3ccc(C(F)(F)F)cc3n12` [Example 63, 1-(2-Methoxy-phenyl)-4-methyl-8-trifluoromethyl-[1,2,4]triazolo[4,3-a]quinoxaline] showed an IC50 [2] of 265 nM.

`Cc1nc2ccc(C(F)(F)F)cc2n2c(-c3cccc(Cl)c3Cl)nnc12` [Example 64, 1-(2,3-Dichloro-phenyl)-4-methyl-8-trifluoromethyl-[1,2,4]triazolo[4,3-a]quinoxaline] showed an IC50 [2] of 337 nM.

Molecule `Cc1nc2ccc(C(F)(F)F)cc2n2c(-c3cc(C(F)(F)F)ccc3Cl)nnc12` [Example 65, 1-(2-Chloro-5-trifluoromethyl-phenyl)-4-methyl-8-trifluoromethyl-[1,2,4]triazolo[4,3-a]quinoxaline] has an IC50 [2] of over 1000 nM.

`Cc1nc2ccc(C(F)(F)F)cc2n2c(-c3ccccc3F)nnc12` [Example 66, 1-(2-Fluorophenyl)-4-methyl-8-trifluoromethyl-[1,2,4]triazolo[4,3-a]quinoxaline] gave an IC50 [2] of 471 nM.

For `CCCCOc1ccc(F)c(-c2nnc3c(C)nc4ccc(C(F)(F)F)cc4n23)c1` [Example 67, 1-(5-Butoxy-2-fluoro-phenyl)-4-methyl-8-trifluoromethyl-[1,2,4]triazolo[4,3-a]quinoxaline], the IC50 [2] was over 1000 nM.

Work on `CCCCCCOc1ccc(F)c(-c2nnc3c(C)nc4ccc(C(F)(F)F)cc4n23)c1` [Example 68, 1-(2-Fluoro-5-hexyloxy-phenyl)-4-methyl-8-trifluoromethyl-[1,2,4]triazolo[4,3-a]quinoxaline] yielded an IC50 [2] of over 1000 nM.

`CSc1ncccc1-c1nnc2c(C)nc3cc(C(F)(F)F)ccc3n12` [Example 69, 4-Methyl-1-(2-methylsulfanyl-pyridin-3-yl)-7-trifluoromethyl-[1,2,4]triazolo[4,3-a]quinoxaline] gave an IC50 [1] of over 1000 nM.

Molecule `Cc1nc2cc(C(F)(F)F)ccc2n2c(-c3c(F)cccc3F)nnc12` [Example 70, 1-(2,6-Difluoro-phenyl)-4-methyl-7-trifluoromethyl-[1,2,4]triazolo[4,3-a]quinoxaline] has an IC50 [1] of 77 nM.

Molecule `COc1ccc2c(c1)nc(C)c1nnc(-c3ccccc3F)n12` [Example 73, 1-(2-Fluoro-phenyl)-7-methoxy-4-methyl-[1,2,4]triazolo[4,3-a]quinoxaline] has an IC50 [2] of 223 nM.

`COc1ccc2c(c1)nc(C)c1nnc(-c3ccccc3Cl)n12` [Example 74, 1-(2-Chloro-phenyl)-7-methoxy-4-methyl-[1,2,4]triazolo[4,3-a]quinoxaline] was tested, and the IC50 [2] was 68 nM.

Molecule `COc1ccc2c(c1)nc(C)c1nnc(-c3c(F)cccc3F)n12` [Example 75, 1-(2,6-Difluoro-phenyl)-7-methoxy-4-methyl-[1,2,4]triazolo[4,3-a]quinoxaline] has an IC50 [1] of 334 nM.

For `Cc1nc2cc(O)ccc2n2c(-c3ccccc3Cl)nnc12` [Example 76, 1-(2-Chloro-phenyl)-4-methyl-[1,2,4]triazolo[4,3-a]quinoxalin-7-ol], the IC50 [2] was 274 nM.

With `Cc1nc2cc(OCc3ccc(F)cc3)ccc2n2c(-c3ccccc3Cl)nnc12` [Example 77, 1-(2-Chloro-phenyl)-7-(4-fluoro-benzyloxy)-4-methyl-[1,2,4]triazolo[4,3-a]quinoxaline] the IC50 [1] was 118 nM.

Work on `COc1ccc(CCOc2ccc3c(c2)nc(C)c2nnc(-c4ccccc4Cl)n23)cc1OC` [Example 78, 1-(2-Chloro-phenyl)-7-[2-(3,4-dimethoxy-phenyl)-ethoxy]-4-methyl-[1,2,4]triazolo[4,3-a]quinoxaline] yielded an IC50 [2] of 48 nM.

In the case of `Cc1nc2cc(OCc3ccc4ccccc4n3)ccc2n2c(-c3ccccc3Cl)nnc12` [Example 79, 1-(2-Chloro-phenyl)-4-methyl-7-(quinolin-2-ylmethoxy)-[1,2,4]triazolo[4,3-a]quinoxaline], the IC50 [2] is reported as 1 nM.

Molecule `Cc1nc2ccc(OCc3ccc4ccccc4n3)cc2n2c(-c3ccccc3Cl)nnc12` [Example 80, 1-(2-Chloro-phenyl)-4-methyl-8-(quinolin-2-ylmethoxy)-[1,2,4]triazolo[4,3-a]quinoxaline] has an IC50 [2] of 10 nM.

Molecule `CC(=O)OCCCCOc1ccc(Cl)c(-c2nnc3c(C)nc4ccccc4n23)c1` [Example 89, Acetic acid 4-[4-chloro-3-(4-methyl-[1,2,4]triazolo[4,3-a]quinoxalin-1-yl)-phenoxy]-butyl ester] has an IC50 [2] of over 1000 nM.

Molecule `Cc1nc2ccccc2n2c(-c3cc(OCCN4CCOCC4)ccc3Cl)nnc12` [Example 91, 1-[2-Chloro-5-(2-morpholin-4-yl-ethoxy)-phenyl]-4-methyl-[1,2,4]triazolo[4,3-a]quinoxaline] has an IC50 [2] of over 1000 nM.

`Cc1nc2ccccc2n2c(-c3cc(OCC(=O)c4ccccn4)ccc3Cl)nnc12` [Example 93, 2-[4-Chloro-3-(4-methyl-[1,2,4]triazolo[4,3-a]quinoxalin-1-yl)-phenoxy]-1-pyridin-2-yl-ethanone] showed an IC50 [2] of over 1000 nM.

`Cc1nc2ccccc2n2c(-c3cc(OCCN4CCN(C)CC4)ccc3Cl)nnc12` [Example 94, 1-{2-Chloro-5-[2-(4-methyl-piperazin-1-yl)-ethoxy]-phenyl}-4-methyl-[1,2,4]triazolo[4,3-a]quinoxaline] was tested, and the IC50 [1] was over 1000 nM.

Molecule `Cc1nc2ccccc2n2c(-c3cc(OCCN4CCCCC4)ccc3Cl)nnc12` [Example 95, 1-[2-Chloro-5-(2-piperidin-1-yl-ethoxy)-phenyl]-4-methyl-[1,2,4]triazolo[4,3-a]quinoxaline] has an IC50 [2] of over 1000 nM.

`Cc1nc2ccccc2n2c(-c3cc(OCCN4CCCC4)ccc3Cl)nnc12` [Example 96, 1-[2-Chloro-5-(2-pyrrolidin-1-yl-ethoxy)-phenyl]-4-methyl-[1,2,4]triazolo[4,3-a]quinoxaline] was tested, and the IC50 [2] was over 1000 nM.

In the case of `Cc1nc2ccccc2n2c(-c3cc(OCCC4CCOCC4)ccc3Cl)nnc12` [Example 97, 1-{2-Chloro-5-[2-(tetrahydro-pyran-4-yl)-ethoxy]-phenyl}-4-methyl-[1,2,4]triazolo[4,3-a]quinoxaline], the IC50 [2] is reported as over 1000 nM.

In the case of `Cc1nc2ccccc2n2c(-c3cc(OCC(C)O)ccc3Cl)nnc12` (centres unmarked) [Example 100, 1-[4-Chloro-3-(4-methyl-[1,2,4]triazolo[4,3-a]quinoxalin-1-yl)-phenoxy]-propan-2-ol], the IC50 [2] is reported as 784 nM.

In the case of `Cc1nc2ccc(Cl)cc2n2c(-c3cc(OCCCO)ccc3Cl)nnc12` [Example 101, 3-[4-Chloro-3-(8-chloro-4-methyl-[1,2,4]triazolo[4,3-a]quinoxalin-1-yl)-phenoxy]-propan-1-ol], the IC50 [2] is reported as 319 nM.

Molecule `Cc1nc2ccc(Cl)cc2n2c(-c3cc(OCC(C)O)ccc3Cl)nnc12` (centres unmarked) [Example 102, 1-[4-Chloro-3-(8-chloro-4-methyl-[1,2,4]triazolo[4,3-a]quinoxalin-1-yl)-phenoxy]-propan-2-ol] has an IC50 [2] of 611 nM.

With `Cc1nc2ccccc2n2c(-c3cc(OC[C@H](C)O)ccc3Cl)nnc12` [Example 103, (S) 1-[4-Chloro-3-(4-methyl-[1,2,4]triazolo[4,3-a]quinoxalin-1-yl)-phenoxy]-propan-2-ol] the IC50 [1] was over 1000 nM.

Work on `Cc1nc2ccccc2n2c(-c3cc(OC[C@@H](C)O)ccc3Cl)nnc12` [Example 104, (R) 1-[4-Chloro-3-(4-methyl-[1,2,4]triazolo[4,3-a]quinoxalin-1-yl)-phenoxy]-propan-2-ol] yielded an IC50 [1] of over 1000 nM.

`Cc1nc2ccccc2n2c(-c3cc(OCC(O)c4ccccn4)ccc3Cl)nnc12` (centres unmarked) [Example 105, 2-[4-Chloro-3-(4-methyl-[1,2,4]triazolo[4,3-a]quinoxalin-1-yl)-phenoxy]-1-pyridin-2-yl-ethanol] showed an IC50 [1] of over 1000 nM.

Molecule `Cc1nc2ccccc2n2c(-c3cc(OCC(F)c4ccccn4)ccc3Cl)nnc12` (centres unmarked) [Example 106, 1-[2-Chloro-5-(2-fluoro-2-pyridin-2-yl-ethoxy)-phenyl]-4-methyl-[1,2,4]triazolo[4,3-a]quinoxaline] has an IC50 [1] of 963 nM.

`Cc1nc2ccc(Cl)cc2n2c(-c3cc(O)ccc3Cl)nnc12` [Example 107, 4-Chloro-3-(8-chloro-4-methyl-[1,2,4]triazolo[4,3-a]quinoxalin-1-yl)-phenol] was tested, and the IC50 [2] was 13 nM.

`COCCOc1ccc(F)c(-c2nnc3cnc4ccccc4n23)c1` [Example 109, 1-[2-Fluoro-5-(2-methoxy-ethoxy)-phenyl]-[1,2,4]triazolo[4,3-a]quinoxaline] gave an IC50 [2] of over 1000 nM.

In the case of `Cc1ccc2nc(C)c3nnc(-c4cc(OCCCC(F)(F)F)ccc4Cl)n3c2c1` [Example 110, 1-[2-Chloro-5-(4,4,4,-trifluoro-butoxy)-phenyl]-4,8-dimethyl-[1,2,4]triazolo[4,3-a]quinoxaline], the IC50 [2] is reported as over 1000 nM.

In the case of `Cc1nc2cc(C#N)ccc2n2c(-c3cc(OCCCC(F)(F)F)ccc3Cl)nnc12` [Example 111, 7-Cyano-1-[2-chloro-5-(4,4,4,-trifluoro-butoxy)-phenyl]-4-methyl-[1,2,4]triazolo[4,3-a]quinoxaline], the IC50 [2] is reported as over 1000 nM.
